Reference: publication PMC6271338, “Synthesis and Cytotoxic Evaluation of Alkoxylated Chalcones” (Molecules, 2014)

Assays:
HepG2 cells = assay: In vitro anti-proliferative SRB assay, HepG2; type: cell-based, human; conditions: for IC50: HepG2, increasing concentrations up to 30 μM, mean ± SD of at least three independent experiments; for SI (CC50 HMLE/IC50 HepG2) / SI (CC50 L02/IC50 HepG2): selectivity index; for SI (CC50 HMLE/IC50 HepG2): HMLE vs HepG2; for SI (CC50 L02/IC50 HepG2): L02 vs HepG2
Description: (§1) HepG2 and MCF7 cells were grown in the Eagle’s minimum essential medium with Earle’s balanced salts (MEM-EBSS) medium, HeLa, A549 and L02 cells were grown in Dulbecco’s Modified Eagle Media (DMEM), SW1990 cells were grown in RPMI-1640 medium, and HMLE cell were grown in DMEM/F-12 medium. […]
(§2) Cells were seeded into 96-well plates (4000 cells/well) and incubated at 37 °C in a humidified 5% CO2 atmosphere. After 24 h, the cells were treated with different concentrations of the compounds for 48 h in triplicate to generate dose-response curves. Cell viability was evaluated using the sulforhodamine B (SRB) assay as previous described.

HeLa cells = assay: In vitro anti-proliferative SRB assay, HeLa; type: cell-based, human; conditions: for IC50: Homo sapiens, HeLa, increasing concentrations up to 30 μM, mean ± SD of at least three independent experiments; for SI (CC50 HMLE/IC50 Hela) / SI (CC50 L02/IC50 Hela): selectivity index; for SI (CC50 HMLE/IC50 Hela): HMLE vs HeLa; for SI (CC50 L02/IC50 Hela): L02 vs HeLa
Description: as §1, §2

MCF-7 cells = assay: In vitro anti-proliferative SRB assay, MCF-7; type: cell-based, human; conditions: for IC50: Homo sapiens, MCF7, increasing concentrations up to 30 μM, mean ± SD of at least three independent experiments; for SI (CC50 HMLE/IC50 MCF7) / SI (CC50 L02/IC50 MCF7): selectivity index; for SI (CC50 HMLE/IC50 MCF7): HMLE vs MCF7; for SI (CC50 L02/IC50 MCF7): L02 vs MCF7
Description: as §1, §2

A549 cells = assay: In vitro anti-proliferative SRB assay, A549; type: cell-based, human; conditions: for IC50: Homo sapiens, A549, increasing concentrations up to 30 μM, mean ± SD of at least three independent experiments; for SI (CC50 HMLE/IC50 A549) / SI (CC50 L02/IC50 A549): selectivity index; for SI (CC50 HMLE/IC50 A549): HMLE vs A549; for SI (CC50 L02/IC50 A549): L02 vs A549
Description: as §1, §2

SW1990 cells = assay: In vitro anti-proliferative SRB assay, SW1990; type: cell-based, human; conditions: for IC50: Homo sapiens, SW1990, increasing concentrations up to 30 μM, mean ± SD of at least three independent experiments; for SI (CC50 HMLE/IC50 SW1990) / SI (CC50 L02/IC50 SW1990): selectivity index; for SI (CC50 HMLE/IC50 SW1990): HMLE vs SW1990; for SI (CC50 L02/IC50 SW1990): L02 vs SW1990
Description: as §1, §2

[1] = Cytotoxicity (SRB) against non-tumoral HMLE cells; type: cell-based, human; conditions: human, HMLE cells (non-tumoral human mammary epithelial cells); increasing concentrations up to 100 μM; mean ± SD of at least three independent experiments; read-out: Normal Human Cell Lines, CC50, HMLE
Description: (§3) All compounds were also evaluated for their cytotoxic activity against two non-tumoral human cell lines named human mammary epithelial cell (HMLE) and L02 (a human liver cell line) in Table 2 and SI values between the CC50 in non-tumoral cell lines and IC50 in tumoral cells calculated.
as §1
(§4) Cells were seeded into 96-well plates (4000 cells/well) and incubated at 37 °C in a humidified 5% CO2 atmosphere. After 24 h, the cells were treated with different concentrations of the compounds for 48 h in triplicate to generate dose-response curves. Cell viability was evaluated using the sulforhodamine B (SRB) assay as previous described. […] Etoposide was used as the positive control.

[2] = Cytotoxicity (SRB) against non-tumoral L02 cells; type: cell-based, human; conditions: human, L02 cells (non-tumoral human liver cell line); increasing concentrations up to 100 μM; mean ± SD of at least three independent experiments; read-out: Normal Human Cell Lines, CC50, L02
Description: as §3, §1, §4

Structure (SMILES)	IC50 (HepG2 cells; Homo sapiens) [µM]	SI (CC50 HMLE/IC50 HepG2) (HepG2 cells)	SI (CC50 L02/IC50 HepG2) (HepG2 cells)	IC50 (HeLa cells) [µM]	SI (CC50 HMLE/IC50 Hela) (HeLa cells)	SI (CC50 L02/IC50 Hela) (HeLa cells)	IC50 (MCF-7 cells) [µM]	SI (CC50 HMLE/IC50 MCF7) (MCF-7 cells)	SI (CC50 L02/IC50 MCF7) (MCF-7 cells)	IC50 (A549 cells) [µM]	SI (CC50 HMLE/IC50 A549) (A549 cells)	SI (CC50 L02/IC50 A549) (A549 cells)	IC50 (SW1990 cells) [µM]	SI (CC50 HMLE/IC50 SW1990) (SW1990 cells)	SI (CC50 L02/IC50 SW1990) (SW1990 cells)	CC50 at 48 h [1] [µM]	CC50 at 48 h [2] [µM]	melting point [°C]	inhibition at 10 µM (HepG2 cells; Homo sapiens, HepG2 cells, 10 μM, SRB assay, mean ± SD of three independent experiments) [%]
COc1cccc(OC)c1/C=C/C(=O)c1ccc2c(c1)OCO2 [b20, (E)-1-(Benzo[d][1,3]dioxol-5-yl)-3-(2,6-dimethoxyphenyl)prop-2-en-1-one]	17.5 ± 0.54	0.8	3.5	16.2 ± 0.95	0.9	3.8	22.5 ± 0.37	0.6	2.7	19.5 ± 0.9	0.7	3.1	25.9 ± 0.65	0.5	2.4	14.2 ± 1.06	60.9 ± 5.61	138.6 to 140.4	–
COc1ccc(C(=O)/C=C/c2cc(OC)cc(OC)c2)cc1 [a16, (E)-1-(4-Methoxyphenyl)-3-(3,5-dimethoxyphenyl)prop-2-en-1-one]	9.2 ± 0.31	0.4	1.0	12.4 ± 0.34	0.3	0.7	23.1 ± 0.79	0.1	0.4	21.2 ± 0.55	0.2	0.4	17.8 ± 0.07	0.2	0.5	3.28 ± 0.31	8.87 ± 1.83	87.6 to 89.1	70.6 ± 2
COc1cccc(OC)c1/C=C/C(=O)c1ccc(Cl)cc1 [b35, (E)-1-(4-Chlorophenyl)-3-(2,6-dimethoxyphenyl)prop-2-en-1-one]	27.1 ± 0.88	0.7	3.2	18.4 ± 0.06	1.0	4.6	29.8 ± 0.8	0.6	2.9	> 30	<0.6	<2.8	> 30	<0.6	<2.8	17.7 ± 1.35	85.4 ± 6.86	107.9 to 109.7	–
COc1ccc(C(=O)/C=C/c2c(OC)cccc2OC)c(O)c1 [b28, (E)-1-(2-Hydroxy-4-methoxyphenyl)-3-(2,6-dimethoxyphenyl)prop-2-en-1-one]	19.5 ± 0.79	0.8	>5.1	17 ± 0.65	1.0	>5.9	28.4 ± 1.25	0.6	>3.5	17.4 ± 0.97	0.9	>5.8	28.3 ± 0.26	0.6	>3.5	16.2 ± 2.48	> 100	143.5 to 144.7	–
